Results: ChEMBL document CHEMBL3638630 (2014)

How the values were obtained:
[1] = target: Collagenase 3 (Homo sapiens, UniProt P45452); test: (§1) Inhibition Assay: The inhibition tests and the evaluation of the inhibition constants (Ki) on the various MMPs were carried out as described by Devel et al. (Devel et al. 2006 J. Biol. Chem. (7)).
[2] = target: Macrophage metalloelastase (Homo sapiens, UniProt P39900); test: as §1
[3] = target: 72 kDa type IV collagenase (Homo sapiens, UniProt P08253); test: as §1
[4] = target: Stromelysin-2 (Homo sapiens, UniProt P09238); test: as §1
[5] = target: Matrix metalloproteinase-9 (Homo sapiens, UniProt P14780); test: as §1
[6] = target: Matrix metalloproteinase-14 (Homo sapiens, UniProt P50281); test: as §1
[7] = target: Stromelysin-1 (Homo sapiens, UniProt P08254); test: as §1
[8] = target: Neutrophil collagenase (Homo sapiens, UniProt P22894); test: as §1
Sequence of Neutrophil collagenase (P22894 whole entry): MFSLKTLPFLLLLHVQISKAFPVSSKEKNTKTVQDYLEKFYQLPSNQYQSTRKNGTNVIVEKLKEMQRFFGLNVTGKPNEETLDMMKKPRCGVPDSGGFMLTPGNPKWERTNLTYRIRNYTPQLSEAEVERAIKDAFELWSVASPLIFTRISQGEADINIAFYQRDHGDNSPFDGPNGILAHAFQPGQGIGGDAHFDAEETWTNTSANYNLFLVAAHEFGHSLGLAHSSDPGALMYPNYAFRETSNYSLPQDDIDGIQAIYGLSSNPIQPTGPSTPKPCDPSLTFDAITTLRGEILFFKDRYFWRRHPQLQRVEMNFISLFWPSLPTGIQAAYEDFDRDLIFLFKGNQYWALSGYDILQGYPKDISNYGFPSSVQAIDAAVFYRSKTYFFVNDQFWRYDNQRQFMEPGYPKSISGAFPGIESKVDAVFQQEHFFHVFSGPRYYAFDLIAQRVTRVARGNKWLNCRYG

Sequence of Stromelysin-1 (P08254 whole entry): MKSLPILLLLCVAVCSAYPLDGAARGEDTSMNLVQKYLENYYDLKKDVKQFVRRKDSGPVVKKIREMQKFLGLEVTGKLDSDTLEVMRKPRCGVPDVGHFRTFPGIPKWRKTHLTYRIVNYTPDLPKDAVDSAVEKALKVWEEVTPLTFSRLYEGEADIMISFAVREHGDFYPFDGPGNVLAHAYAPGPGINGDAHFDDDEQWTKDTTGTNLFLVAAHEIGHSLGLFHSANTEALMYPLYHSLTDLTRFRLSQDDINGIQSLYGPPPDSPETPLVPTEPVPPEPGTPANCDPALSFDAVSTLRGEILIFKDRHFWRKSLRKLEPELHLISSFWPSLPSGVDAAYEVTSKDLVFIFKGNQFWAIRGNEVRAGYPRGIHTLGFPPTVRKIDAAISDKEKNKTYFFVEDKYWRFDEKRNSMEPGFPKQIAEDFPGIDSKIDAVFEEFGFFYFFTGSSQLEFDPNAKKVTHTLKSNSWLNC
Sequence of Stromelysin-2 (P09238 whole entry): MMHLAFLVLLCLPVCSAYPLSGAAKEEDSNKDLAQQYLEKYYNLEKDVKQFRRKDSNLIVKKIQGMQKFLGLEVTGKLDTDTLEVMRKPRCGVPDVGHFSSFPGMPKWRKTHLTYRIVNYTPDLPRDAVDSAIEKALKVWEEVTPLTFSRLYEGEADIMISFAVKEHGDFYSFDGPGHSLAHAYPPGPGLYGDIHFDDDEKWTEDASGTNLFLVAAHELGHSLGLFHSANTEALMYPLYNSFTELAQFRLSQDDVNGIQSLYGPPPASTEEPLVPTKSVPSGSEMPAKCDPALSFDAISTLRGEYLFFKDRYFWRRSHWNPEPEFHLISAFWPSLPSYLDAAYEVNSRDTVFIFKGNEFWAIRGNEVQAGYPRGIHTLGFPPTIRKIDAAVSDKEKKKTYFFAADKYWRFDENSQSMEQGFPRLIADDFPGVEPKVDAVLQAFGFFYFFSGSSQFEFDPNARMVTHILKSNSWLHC
Sequence of Matrix metalloproteinase-9 (P14780 whole entry): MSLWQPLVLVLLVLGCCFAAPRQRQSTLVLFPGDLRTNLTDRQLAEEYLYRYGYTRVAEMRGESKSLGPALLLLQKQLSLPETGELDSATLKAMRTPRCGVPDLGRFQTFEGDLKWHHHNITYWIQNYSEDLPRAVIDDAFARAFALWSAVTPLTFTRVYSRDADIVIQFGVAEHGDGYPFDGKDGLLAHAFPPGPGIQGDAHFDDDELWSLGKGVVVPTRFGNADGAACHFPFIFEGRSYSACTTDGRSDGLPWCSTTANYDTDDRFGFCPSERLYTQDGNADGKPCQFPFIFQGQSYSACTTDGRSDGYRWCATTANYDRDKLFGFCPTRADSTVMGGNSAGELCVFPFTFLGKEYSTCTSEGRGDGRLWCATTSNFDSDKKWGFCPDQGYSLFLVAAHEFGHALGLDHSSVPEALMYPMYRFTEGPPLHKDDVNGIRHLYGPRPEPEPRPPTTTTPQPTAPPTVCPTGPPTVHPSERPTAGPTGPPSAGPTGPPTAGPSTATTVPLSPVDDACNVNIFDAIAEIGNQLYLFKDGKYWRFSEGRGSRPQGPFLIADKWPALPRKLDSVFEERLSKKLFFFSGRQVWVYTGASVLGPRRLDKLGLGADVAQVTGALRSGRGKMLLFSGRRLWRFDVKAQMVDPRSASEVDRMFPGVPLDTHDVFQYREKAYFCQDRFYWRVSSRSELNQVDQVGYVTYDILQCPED
Sequence of 72 kDa type IV collagenase (P08253 whole entry): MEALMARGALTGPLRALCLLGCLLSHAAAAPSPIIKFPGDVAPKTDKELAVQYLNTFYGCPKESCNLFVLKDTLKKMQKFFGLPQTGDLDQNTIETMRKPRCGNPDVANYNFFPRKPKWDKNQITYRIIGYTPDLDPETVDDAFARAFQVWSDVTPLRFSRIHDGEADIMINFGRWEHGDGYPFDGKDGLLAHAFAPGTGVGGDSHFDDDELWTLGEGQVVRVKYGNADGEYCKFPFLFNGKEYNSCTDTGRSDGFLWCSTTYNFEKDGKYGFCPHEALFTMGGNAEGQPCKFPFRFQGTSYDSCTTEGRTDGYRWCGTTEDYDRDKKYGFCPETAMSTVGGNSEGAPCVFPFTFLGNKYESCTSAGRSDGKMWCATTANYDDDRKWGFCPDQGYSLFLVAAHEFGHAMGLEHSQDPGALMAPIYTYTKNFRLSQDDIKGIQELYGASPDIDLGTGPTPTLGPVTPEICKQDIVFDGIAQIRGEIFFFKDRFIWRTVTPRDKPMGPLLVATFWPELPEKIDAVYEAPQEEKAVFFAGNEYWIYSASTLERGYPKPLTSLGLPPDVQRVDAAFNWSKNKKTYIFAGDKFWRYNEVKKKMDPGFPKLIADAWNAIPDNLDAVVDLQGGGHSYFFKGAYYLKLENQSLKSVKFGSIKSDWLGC
Sequence of Macrophage metalloelastase (P39900 whole entry): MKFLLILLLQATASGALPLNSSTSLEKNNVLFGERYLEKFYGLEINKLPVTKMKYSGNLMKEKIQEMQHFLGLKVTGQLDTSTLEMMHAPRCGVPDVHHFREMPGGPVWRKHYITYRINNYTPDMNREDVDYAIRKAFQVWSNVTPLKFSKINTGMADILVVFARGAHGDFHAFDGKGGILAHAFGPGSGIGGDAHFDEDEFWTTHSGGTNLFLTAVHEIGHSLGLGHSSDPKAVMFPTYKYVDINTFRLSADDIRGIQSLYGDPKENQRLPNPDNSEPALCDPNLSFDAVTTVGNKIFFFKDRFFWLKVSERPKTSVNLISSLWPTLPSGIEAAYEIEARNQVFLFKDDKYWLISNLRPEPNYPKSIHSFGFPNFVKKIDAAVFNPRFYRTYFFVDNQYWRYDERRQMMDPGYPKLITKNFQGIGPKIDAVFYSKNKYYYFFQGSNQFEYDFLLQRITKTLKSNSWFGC

NC(=O)CC[C@H](NC(=O)CCc1ccc(-c2cc(-c3ccccc3)cs2)cc1)C(=O)N[C@@H](CCC(=O)O)C(N)=O
Ki [1]: > 1 µM
Ki [2]: 0.317 µM
Ki [3]: > 5 µM
Ki [4]: > 10 µM
Ki [5]: > 5 µM
Ki [6]: > 10 µM
Ki [7]: > 10 µM
Ki [8]: > 10 µM
